Experiments:
Carboplatin = compound: C1CC(C1)(C(=O)[O-])C(=O)[O-].N.N.[Pt+2] [Carboplatin]; conditions: max 10 µM
Summary of the method: (§1)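 Cancer cell lines in 1536-well plates (7.5 μl DMEM/F12 or RPMI, 10% FBS) were held 24 hours at 37°C and 5% CO2 and then dosed for 72 hours at a final DMSO of typically 0.2%. Viability was taken from CellTiter-Glo 2.0 luminescence, scaled between blank-well and DMSO-well means. Curves were fitted as two-parameter logistic models with a non-linear mixed effects model, from which the single-agent IC50 was taken.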

AZD5363 = compound: C1CN(CCC1(C(=O)N[C@@H](CCO)C2=CC=C(C=C2)Cl)N)C3=NC=NC4=C3C=CN4 [AZD5363]; conditions: max 10 µM
Summary of the method: as §1

AZD1775 = compound: C=CCn1c(=O)c2cnc(Nc3ccc(N4CCN(C)CC4)cc3)nc2n1-c1cccc(C(C)(C)O)n1 [AZD1775]; conditions: max 3 µM
Summary of the method: as §1

Trametinib = compound: CC(=O)Nc1cccc(-n2c(=O)n(C3CC3)c(=O)c3c(Nc4ccc(I)cc4F)n(C)c(=O)c(C)c32)c1 [Trametinib]; conditions: max 1 µM
Summary of the method: as §1

Paclitaxel = compound: CC(=O)O[C@H]1C(=O)[C@@]2(C)[C@H]([C@H](OC(=O)c3ccccc3)[C@]3(O)C[C@H](OC(=O)[C@H](O)[C@@H](NC(=O)c4ccccc4)c4ccccc4)C(C)=C1C3(C)C)[C@]1(OC(C)=O)CO[C@@H]1C[C@@H]2O [Paclitaxel]; conditions: max 3 µM
Summary of the method: as §1

Palbociclib = compound: CC(=O)c1c(C)c2cnc(Nc3ccc(N4CCNCC4)cn3)nc2n(C2CCCC2)c1=O [Palbociclib]; conditions: max 10 µM
Summary of the method: as §1

AZD1390 = compound: CC(C)n1c(=O)n(C)c2cnc3cc(F)c(-c4ccc(OCCCN5CCCCC5)nc4)cc3c21 [AZD1390]; conditions: max 0.3 µM
Summary of the method: as §1

Venetoclax = compound: CC1(C)CCC(CN2CCN(c3ccc(C(=O)NS(=O)(=O)c4ccc(NCC5CCOCC5)c([N+](=O)[O-])c4)c(Oc4cnc5[nH]ccc5c4)c3)CC2)=C(c2ccc(Cl)cc2)C1 [Venetoclax]; conditions: max 1 µM
Summary of the method: as §1

Dasatinib = compound: CC1=C(C(=CC=C1)Cl)NC(=O)C2=CN=C(S2)NC3=CC(=NC(=N3)C)N4CCN(CC4)CCO [Dasatinib]; conditions: max 2 µM
Summary of the method: as §1

SG3199 = compound: CC1=CN2[C@@H](C1)C=NC3=CC(=C(C=C3C2=O)OC)OCCCCCOC4=C(C=C5C(=C4)N=C[C@@H]6CC(=CN6C5=O)C)OC [SG3199]; conditions: max 0.001 µM
Summary of the method: as §1

AZD2811 = compound: CCN(CCO)CCCOc1ccc2c(Nc3cc(CC(=O)Nc4cccc(F)c4)[nH]n3)ncnc2c1 [AZD2811]; conditions: max 1 µM
Summary of the method: as §1

SN-38 = compound: CCc1c2c(nc3ccc(O)cc13)-c1cc3c(c(=O)n1C2)COC(=O)[C@]3(O)CC [SN-38]; conditions: max 0.3 µM
Summary of the method: as §1

AZD0156 = compound: CN(C)CCCOc1ccc(-c2ccc3ncc4c(c3c2)n(C2CCOCC2)c(=O)n4C)cn1 [AZD0156]; conditions: max 3 µM
Summary of the method: as §1

AZD4320 = compound: CN(CC[C@H](CSC1=CC=CC=C1)NC2=C(C=C(C=C2)S(=O)(=O)NC(=O)C3=CC=C(C=C3)N4CCC(CC4)[C@H](C5=CC=CC=C5C6=CC=C(C=C6)Cl)O)S(=O)(=O)C(F)(F)F)CCO [AZD4320]; conditions: max 1 µM
Summary of the method: as §1

Alisertib = compound: COc1cc(Nc2ncc3c(n2)-c2ccc(Cl)cc2C(c2c(F)cccc2OC)=NC3)ccc1C(=O)O [Alisertib]; conditions: max 10 µM
Summary of the method: as §1

Etoposide = compound: COc1cc([C@@H]2c3cc4c(cc3[C@@H](O[C@@H]3O[C@@H]5CO[C@@H](C)O[C@H]5[C@H](O)[C@H]3O)[C@H]3COC(=O)[C@H]23)OCO4)cc(OC)c1O [Etoposide]; conditions: max 10 µM
Summary of the method: as §1

Gefitinib = compound: COc1cc2ncnc(Nc3ccc(F)c(Cl)c3)c2cc1OCCCN1CCOCC1 [Gefitinib]; conditions: max 10 µM
Summary of the method: as §1

Prexasertib = compound: COc1cccc(OCCCN)c1-c1cc(Nc2cnc(C#N)cn2)n[nH]1 [Prexasertib]; conditions: max 1 µM
Summary of the method: as §1

Doxorubicin = compound: COc1cccc2c1C(=O)c1c(O)c3c(c(O)c1C2=O)C[C@@](O)(C(=O)CO)C[C@@H]3O[C@H]1C[C@H](N)[C@H](O)[C@H](C)O1 [Doxorubicin]; conditions: max 1 µM
Summary of the method: as §1

AZD5153 = compound: COc1nnc2ccc(N3CCC(c4ccc(OCCN5CCN(C)C(=O)[C@H]5C)cc4)CC3)nn12 [AZD5153]; conditions: max 1 µM
Summary of the method: as §1

Lapatinib = compound: CS(=O)(=O)CCNCc1ccc(-c2ccc3ncnc(Nc4ccc(OCc5cccc(F)c5)c(Cl)c4)c3c2)o1 [Lapatinib]; conditions: max 10 µM
Summary of the method: as §1

AZD8186 = compound: C[C@@H](Nc1cc(F)cc(F)c1)c1cc(C(=O)N(C)C)cc2c(=O)cc(N3CCOCC3)oc12 [AZD8186]; conditions: max 10 µM
Summary of the method: as §1

Crizotinib = compound: C[C@@H](Oc1cc(-c2cnn(C3CCNCC3)c2)cnc1N)c1c(Cl)ccc(F)c1Cl [Crizotinib]; conditions: max 10 µM
Summary of the method: as §1

Savolitinib = compound: C[C@@H](c1ccc2nccn2c1)n1nnc2ncc(-c3cnn(C)c3)nc21 [Savolitinib]; conditions: max 1 µM
Summary of the method: as §1

AZD6738 = compound: C[C@@H]1COCCN1C2=NC(=NC(=C2)C3(CC3)[S@](=N)(=O)C)C4=C5C=CNC5=NC=C4 [AZD6738]; conditions: max 10 µM
Summary of the method: as §1

AZD5991 = compound: Cc1c2c(nn1C)CSCc1cc(n(C)n1)CSc1cc(c3ccccc3c1)OCCCc1c(C(=O)O)n(C)c3c-2c(Cl)ccc13 [AZD5991]; conditions: max 1 µM
Summary of the method: as §1

AZD7648 = compound: Cc1cc2ncnn2cc1Nc1ncc2c(n1)n(C1CCOCC1)c(=O)n2C [AZD7648]; conditions: max 10 µM
Summary of the method: as §1

Taselisib = compound: Cc1nc(-c2cn3c(n2)-c2ccc(-c4cnn(C(C)(C)C(N)=O)c4)cc2OCC3)n(C(C)C)n1 [Taselisib]; conditions: max 10 µM
Summary of the method: as §1

Selumetinib = compound: Cn1cnc2c(F)c(Nc3ccc(Br)cc3Cl)c(C(=O)NOCCO)cc21 [Selumetinib]; conditions: max 10 µM
Summary of the method: as §1

SRA737 = compound: N#Cc1cnc(Nc2cc(NC[C@H]3CNCCO3)c(C(F)(F)F)cn2)cn1 [SRA737]; conditions: max 10 µM
Summary of the method: as §1

MK-2206 = compound: NC1(c2ccc(-c3nc4ccn5c(=O)[nH]nc5c4cc3-c3ccccc3)cc2)CCC1 [MK-2206]; conditions: max 10 µM
Summary of the method: as §1

Gemcitabine = compound: Nc1ccn([C@@H]2O[C@H](CO)[C@@H](O)C2(F)F)c(=O)n1 [Gemcitabine]; conditions: max 0.3 µM
Summary of the method: as §1

[1] = compound: O=C(Nc1ccc2[nH]nc(-c3ccncc3)c2c1)[C@@H]1CCN(CC(=O)N2CCN(c3ccc(-c4ncccn4)cc3)CC2)C1; conditions: max 5 µM
Summary of the method: as §1

Olaparib = compound: O=C(c1cc(Cc2n[nH]c(=O)c3ccccc23)ccc1F)N1CCN(C(=O)C2CC2)CC1 [Olaparib]; conditions: max 10 µM
Summary of the method: as §1

5-Fluorouracil = compound: O=c1[nH]cc(F)c(=O)[nH]1 [5-Fluorouracil]; conditions: max 20 µM
Summary of the method: as §1

Row | Cell Line | IC50, cell viability 72 h (Carboplatin) [nM] | IC50, cell viability 72 h (AZD5363) [nM] | IC50, cell viability 72 h (AZD1775) [nM] | IC50, cell viability 72 h (Trametinib) [nM] | IC50, cell viability 72 h (Paclitaxel) [nM] | IC50, cell viability 72 h (Palbociclib) [nM] | IC50, cell viability 72 h (AZD1390) [nM] | IC50, cell viability 72 h (Venetoclax) [nM] | IC50, cell viability 72 h (Dasatinib) [nM] | IC50, cell viability 72 h (SG3199) [nM] | IC50, cell viability 72 h (AZD2811) [nM] | IC50, cell viability 72 h (SN-38) [nM] | IC50, cell viability 72 h (AZD0156) [nM] | IC50, cell viability 72 h (AZD4320) [nM] | IC50, cell viability 72 h (Alisertib) [nM] | IC50, cell viability 72 h (Etoposide) [nM] | IC50, cell viability 72 h (Gefitinib) [nM] | IC50, cell viability 72 h (Prexasertib) [nM] | IC50, cell viability 72 h (Doxorubicin) [nM] | IC50, cell viability 72 h (AZD5153) [nM] | IC50, cell viability 72 h (Lapatinib) [nM] | IC50, cell viability 72 h (AZD8186) [nM] | IC50, cell viability 72 h (Crizotinib) [nM] | IC50, cell viability 72 h (Savolitinib) [nM] | IC50, cell viability 72 h (AZD6738) [nM] | IC50, cell viability 72 h (AZD5991) [nM] | IC50, cell viability 72 h (AZD7648) [nM] | IC50, cell viability 72 h (Taselisib) [nM] | IC50, cell viability 72 h (Selumetinib) [nM] | IC50, cell viability 72 h (SRA737) [nM] | IC50, cell viability 72 h (MK-2206) [nM] | IC50, cell viability 72 h (Gemcitabine) [nM] | IC50, cell viability 72 h [1] [nM] | IC50, cell viability 72 h (Olaparib) [nM] | IC50, cell viability 72 h (5-Fluorouracil) [nM]
1 | K5 (Thyroid Gland Carcinoma) | > 10000 | > 10000 | > 3000 | 14.3 | 56.1 | > 10000 | > 300 | > 1000 | 604 | > 1 | > 1000 | 150 | > 3000 | > 1000 | 638 | > 10000 | > 10000 | 251 | 266 | 243 | > 10000 | > 10000 | 9780 | > 1000 | > 10000 | > 1000 | > 10000 | 558 | 2190 | > 10000 | > 10000 | > 300 | 3880 | > 10000 | > 20000
2 | LU-139 (Small Cell Lung Carcinoma) | > 10000 | > 10000 | 1210 | > 1000 | 124 | > 10000 | > 300 | > 1000 | > 2000 | > 1 | > 1000 | 39.2 | > 3000 | 47.4 | 5740 | 2430 | > 10000 | 413 | 513 | 103 | > 10000 | > 10000 | 9530 | > 1000 | > 10000 | > 1000 | > 10000 | > 10000 | > 10000 | > 10000 | > 10000 | 29.5 | > 5000 | > 10000 | > 20000

Reference: the supplement of paper PMC11061612
